Assay results taken from PMC12117711, “The contribution of cyclic imide stereoisomers on cereblon-dependent activity†” (Chemical Science, 2025).
Non-standard residues stand in square brackets, D forms with d. No end group written: not given here. *: point of attachment. epicN = C-terminal cyclic asparagine (aspartimide), (R)-epimer, epimer of cN, O=C1C[C@@H](N*)C(=O)N1; cQ = C-terminal cyclic glutamine (glutarimide), (S)-epimer, O=C1CC[C@H](N*)C(=O)N1; Fmoc = O=C(OCC1c2ccccc2-c2ccccc21)*

Experiments:
[1] = tested on: MOLM13 cells; test: Global quantitative proteomics of protein levels; format: cell-based; details: 4 h; for BRD4 protein levels by global quantitative proteomics: MOLM13 cells, 100 nM; for FC [fold change abundances (S/DMSO)] / logFC (S vs DMSO) / FC [fold change abundances (R/DMSO)] / logFC (R vs DMSO): MOLM13, 100 nM
Experimental: Global Quantitative Proteomics Sample Preparation and Mass Spectrometry Acquisition Global Quantitative Proteomics was performed according to the previously reported method.7 Briefly, 1.0×10^6 MOLM13 cells were seeded in 12-well plates and small molecules of interest were added, and cells were incubated at 37 °C, 5% CO2 for 4 hours. Cells were collected […]
15 sec in total, 11% amplitude) in lysis buffer (5% SDS in 50 mM triethylammonium bicarbonate (TEAB), pH 7.55), and cleared by centrifugation (21,000 × g, 4 °C, 10 min). After protein quantification by BCA protein assay, the lysates were diluted to 1.5 mg/mL with the lysis buffer. The diluted lysates (60 μL) were reduced by addition of dithiothreitol (20 mM) at 24 °C for 30 min then alkylated by addition of iodoacetamide (40 mM) and incubation in the dark at 24 °C for 30 min.

[2] = biological target: His6-CRBN/DDB1 (Homo sapiens, UniProt Q96SW2); test: TR-FRET ligand displacement assay (Thal-FITC tracer) with His6-CRBN/DDB1
[3] = biological target: T1, BRD4(BD1)-GFP in HEK293T cells (Homo sapiens, UniProt O60885+Q96SW2); test: Degradation assay by flow cytometry, BRD4(BD1)-GFP; format: cell-based; details: 76 pM–20 μM, 4 h
T1 construct: HEK293T cells stably expressing BRD4(BD1) fused to GFP
Experimental: (v21.1.1) and Adobe Illustrator (v24.1).
MM.1S, MOLM13, Jurkat, and BxPC3 […]
μg/mL), and 10% (v/v) FBS.
Western Blotting Procedures […]
lysates and the concentration was adjusted using lysis buffer. 5× SDS-PAGE loading buffer […]
Protein samples (8–15 μL per lane) were […]
precast gels for medium molecular weight proteins. Gels were transferred to membranes using […]
for high molecular weight proteins. Membranes were stained with Ponceau S solution to visualize transfer and protein loading.
Degradation assay by flow cytometry […]
resuspension in DMEM +/– without phenol red. For IKZF1 degradation assay, propidium […]
equipped with a high throughput sampler. […]
using the BD FACSDiva software v9.1. For each experimental condition, the arithmetic mean […]
comparing compound treatment to DMSO control.
Structural proteomics mass spectrometry sample preparation […]
sample throughout the assay duration. The same analysis was also applied to the (S)- […]
dependent activity, we adjusted the dose-response curves accordingly. Because dose- […]
within the error margins of the original curve. […]
squares F-test. This analysis determined whether there was a statistically significant […]
derived (S)-enantiomer. If there is a statistically significant difference, the null […]
Cells were treated with 1 μM MLN4924
The cells were collected and lysed in […]
centrifugation (21,000 × g, 4 °C, 10 min). […]

[4] = biological target: T2, His6-CRBN/DDB1 and GST-BRD4(BD2) (Homo sapiens, UniProt O60885+Q96SW2); test: AlphaScreen ternary complex formation, His6-CRBN/DDB1 and GST-BRD4(BD2); format: binding
T2 construct: His6-CRBN/DDB1 complex and GST-BRD4 BD2 domain; purchased Epicypher (GST-BRD4(BD2)); Bristol Myers Squibb gift (His6-CRBN/DDB1) 15-0013
Experimental: AlphaScreen was performed according to the previously reported method.7 Briefly, for AlphaScreen of His6-CRBN/DDB1, GST-IKZF1 and (S)-, (R)- or rac-lenalidomide-d3, a solution of 100 nM His6-CRBN/DDB1 and 200 nM GST-IKZF1 in 1x AlphaScreen buffer (5 µL) and a solution of the indicated compound in 1x AlphaScreen buffer (5 µL) were added to a each well of a 384-well Optiplate and incubated at 24 °C for 1 h. To each well, a solution of 5 µL of 60 µg/mL AlphaScreen Glutathione Donor beads, 60 µg/mL AlphaLISA Nickel Chelate Donor beads in 1× AlphaScreen buffer was added to each well and incubated at 24 °C for 1 h in the dark and the plate was analyzed. For AlphaScreen of His6-CRBN/DDB1, GST-BRD4(BD2) and bivalent degraders, a solution of 750 nM His-CRBN/DDB1 and 375 nM GST-BRD4(BD2) in 1x AlphaScreen buffer (5 µL) and a solution of the indicated compound in 1x AlphaScreen buffer (5 µL) were added to a each well of a 384-well Optiplate and incubated at 24 °C for 1 h. To each well, a solution of 5 µL of 60 µg/mL AlphaScreen Glutathione Donor beads, 60 µg/mL AlphaLISA Nickel Chelate Donor beads in 1× AlphaScreen buffer was added to each well and incubated at 24 °C for 1 h in the dark and the plate was analyzed. […]
heated at 95 °C for 5 min. 10 µL of the immunoprecipitated sample was load on a 12% Tris-glycine gel and probe-labeling was visualized by fluorescence signal. Separately, 10 µL of the immunoprecipitated sample and the “input” sample were load on a 12% Tris-glycine gel and analyzed by Western blotting. […]
Parental cell lines were stably infected with a unique 24-nucleotide DNA barcode via lentiviral transduction and blasticidin selection. […] Passing barcoded lines were then pooled (20-25 cell lines per pool) based on doubling time and frozen in assay-ready vials.
Test compounds were added to 384-well plates and run at 8 pt. dose with 3-fold dilutions, the highest concentration of 25 µM in triplicate. These assay ready plates were then seeded with […]

[5] = tested on: CRBN; design: method as in PMID 29358579, PMID 32929090, PMID 25043012, PMID 25108355; details: cited from earlier work
[6] = in vitro, 0.1 M phosphate buffer (pH 7.4), 37 °C; cited from earlier work
[7] = biological target: T3, His6-CRBN/DDB1 complex (UniProt Q96SW2 1-442; Q16531 1-1140); test: AlphaScreen or HTRF; competitive TR-FRET ligand displacement assay against recombinant His6-CRBN/DDB1; KD from dose-titration of the ligand; details: both partners purified
T3 construct: cereblon (CRBN), E3 ligase substrate adapter; DDB1, in complex with CRBN; Used as a preformed complex in TR-FRET and AlphaScreen; also called cereblon; source: recombinant

[8] = biological target: T4, His6-CRBN/DDB1 complex (UniProt Q96SW2 1-442; Q16531 1-1140); test: AlphaScreen or HTRF; competitive TR-FRET ligand displacement; peptide titrated against recombinant His6-CRBN/DDB1 (2.5 nM) with the tracer Thalidomide-FITC (50 nM); KD from IC50 by the correction factor 1.426 (tracer KD 2-site 117.3 nM); details: both partners purified
T4 construct: cereblon (CRBN), E3 ligase substrate adapter; DDB1, in complex with His6-CRBN; Column 'Protein' of S0003 says only 'CRBN'; the text and legends name His6-CRBN/DDB1 for this TR-FRET assay; also called cereblon; source: recombinant

[9] = biological target: His6-CRBN/DDB1 complex (UniProt Q96SW2); test: AlphaScreen or HTRF; competitive TR-FRET ligand displacement assay against recombinant His6-CRBN/DDB1; KD from dose-titration of the ligand
[10] = KD, competitive TR-FRET, His6-CRBN/DDB1

With `[2H]C1([2H])C[C@]([2H])(N2Cc3cc(NC(=O)CCCCCCCCNC(=O)C[C@@H]4N=C(c5ccc(Cl)cc5)c5c(sc(C)c5C)-n5c(C)nnc54)ccc3C2=O)C(=O)NC1=O` [JQ1-(S)-Len-d3] the “BRD4 protein levels by global quantitative proteomics” value [1] was “most significantly downregulated protein”, the “FC [fold change abundances (S/DMSO)]” value ([1]; protein BRD4) was -1.354 and the “logFC (S vs DMSO)” value ([1]; protein BRD4) was -0.6026. For the same molecule, the “FC [fold change abundances (S/DMSO)]” value ([1]; protein BRI3BP) was 2.54, the “logFC (S vs DMSO)” value ([1]; protein BRI3BP) was 1.398 and the “FC [fold change abundances (S/DMSO)]” value ([1]; protein C8orf33) was 1.053. The “logFC (S vs DMSO)” value ([1]; protein C8orf33) was 0.3248, the “FC [fold change abundances (S/DMSO)]” value ([1]; protein KPNA3) was 1.127 and the “logFC (S vs DMSO)” value ([1]; protein KPNA3) was 0.397. For the same molecule, the “FC [fold change abundances (S/DMSO)]” value ([1]; protein PSME2) was 1.009, the “logFC (S vs DMSO)” value ([1]; protein PSME2) was 0.2805 and the Kd [2, 10] was less than 1 nM. The Kd ([2]; predicted KD of the (S)-stereoisomer, ligand displacement assay adjusted for (S)-stereoisomer, (S)-stereoisomer in the (S)-sample, corrected for racemization) was 2.9 ± 0.2 nM, the “degradation of BRD4(BD1)-GFP” value [3] was “depleted BRD4 in a dose-dependent manner” and the “ternary complex formation between His6-CRBN/DDB1 and GST-BRD4(BD2)” value [4] was “promoted a significant ternary complex formation”.

For `O=C1CC[C@H](N2C(=O)c3ccccc3C2=O)C(=O)N1` [(S)-thalidomide], the “fold greater binding affinity to CRBN than (R)-thalidomide” value [5] is given as “approximately 10 fold”.

In the case of `[2H]C1([2H])C[C@@]([2H])(N2Cc3cc(NC(=O)CCCCCCCCNC(=O)C[C@@H]4N=C(c5ccc(Cl)cc5)c5c(sc(C)c5C)-n5c(C)nnc54)ccc3C2=O)C(=O)NC1=O` [JQ1-(R)-Len-d3], the “BRD4 protein levels by global quantitative proteomics” value [1] is reported as “unperturbed”, the “FC [fold change abundances (R/DMSO)]” value ([1]; protein ARID1A) is reported as 3.475 and the “logFC (R vs DMSO)” value ([1]; protein ARID1A) is reported as 1.826. The “FC [fold change abundances (R/DMSO)]” value ([1]; protein CAB39) was 0.9606, the “logFC (R vs DMSO)” value ([1]; protein CAB39) was 0.2309 and the “FC [fold change abundances (R/DMSO)]” value ([1]; protein FLII) was 1.596. The “logFC (R vs DMSO)” value ([1]; protein FLII) was 0.7992, the “FC [fold change abundances (R/DMSO)]” value ([1]; protein FUBP3) was 1.064 and the “logFC (R vs DMSO)” value ([1]; protein FUBP3) was 0.3358. The “FC [fold change abundances (R/DMSO)]” value ([1]; protein TPD52) was 1.273, the “logFC (R vs DMSO)” value ([1]; protein TPD52) was 0.5322 and the Kd [2, 10] was 79 nM. For the same molecule, the “degradation of BRD4(BD1)-GFP” value [3] was “limited activity”.

For `O=C1CC[C@@H](N2C(=O)c3ccccc3C2=O)C(=O)N1` [(R)-thalidomide], the “t50%ee (racemization half-life)” value [6] is given as 2.9 h.

B1: Fmoc-GGGFcQ (peptide)
peptide: Fmoc-GGGF[cQ]
notes: pentapeptide bearing the (S)-epimer of cyclic glutamine at the C-terminus; also called FcQ pentapeptide; source: synthetic peptide
Molecule B1 has a Kd [7] of 89 nM.

Work on Fmoc-GGGF[epicN] (pentapeptide; source: synthetic peptide) [Fmoc-GGGFepicN] yielded an IC50 [8] of 4090 nM and a Kd [9] of 2870 nM.
